Tests used:
[1] = molecular target: T1, TTK (Homo sapiens, UniProt P33981); settings: 100 μM; cited from earlier work
T1 sequence (P33981 1-857): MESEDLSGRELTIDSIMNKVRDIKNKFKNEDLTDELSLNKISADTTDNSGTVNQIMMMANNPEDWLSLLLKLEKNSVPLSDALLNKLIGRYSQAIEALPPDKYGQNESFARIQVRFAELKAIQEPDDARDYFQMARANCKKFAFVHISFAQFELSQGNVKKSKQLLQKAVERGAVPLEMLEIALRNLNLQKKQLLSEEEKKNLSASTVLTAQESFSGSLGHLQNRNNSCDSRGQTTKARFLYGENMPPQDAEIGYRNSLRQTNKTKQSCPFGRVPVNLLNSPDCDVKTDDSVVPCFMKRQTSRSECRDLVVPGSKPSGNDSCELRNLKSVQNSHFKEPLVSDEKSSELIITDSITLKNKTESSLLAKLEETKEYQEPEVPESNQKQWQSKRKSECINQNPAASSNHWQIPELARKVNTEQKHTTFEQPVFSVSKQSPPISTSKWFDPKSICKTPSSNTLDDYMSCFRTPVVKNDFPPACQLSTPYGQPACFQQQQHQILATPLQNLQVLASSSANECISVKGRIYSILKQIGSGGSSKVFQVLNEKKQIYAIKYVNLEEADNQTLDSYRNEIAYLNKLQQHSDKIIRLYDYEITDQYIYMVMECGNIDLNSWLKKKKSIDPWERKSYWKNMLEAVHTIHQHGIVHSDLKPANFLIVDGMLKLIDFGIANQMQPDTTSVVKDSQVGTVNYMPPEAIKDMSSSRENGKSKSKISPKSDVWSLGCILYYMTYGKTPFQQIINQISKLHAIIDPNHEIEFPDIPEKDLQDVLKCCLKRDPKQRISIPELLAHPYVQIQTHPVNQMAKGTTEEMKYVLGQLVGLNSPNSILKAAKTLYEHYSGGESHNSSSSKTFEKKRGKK

[2] = tested on: 22Rv1 prostate cancer cells; experiment: MTS cytotoxicity assay in 22Rv1 prostate cancer cells; settings: for effect on cell viability of prostate cancer cells: 100 μM up to 72 hours
Procedure, shortened: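 Cells seeded at 1×10^5 per well and dosed after 24 h at the indicated concentrations (final DMSO <1%), then incubated 48-72 hours at 37° C, 5% CO2. MTS added for 2-4 hr; absorbance at 490 nm, viability expressed as percentage of controls.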

In the case of `CC1=Nc2ccc(Cl)cc2S(=O)(=O)N1` [Diazoxide, 7-chloro-3-methyl-2H-1,2,4-benzothiadiazine 1,1-dioxide, reference compound], the “inhibition of TTK” value [1] is given as 15%, the “effect on cell viability of prostate cancer cells” value [2] is given as “no effect to reduce cell viability” and the “effect on cell viability of prostate cancer cells” value ([2]; listed as 9) is given as “no effect on cell viability”. It also gave a cytotoxicity at 100 µM ([2]; Homo sapiens, 22Rv1, 48 h, read-out: reduction of 22Rv1 cell viability) of 12%.

Reference: patent publication US20230219912A1, “HALOGENATED BENZOTHIADIAZINES FOR THE TREATMENT OF CANCER” (BOARD OF REGENTS OF THE UNIVERSITY OF NEBRASKA, priority 2020, published 2023)
